# Key:
# Conditions in all cases: 72 h
# U2OS [1] = test: drug sensitivity score (DSS) for viability; higher = more toxic; extreme values may be limits of the assay
# Calu-3 [2] = test: as above
# HepG2 [3] = test: as above
# Vero E6 [4] = test: as above
# Caco-2 [5] = test: as above
# HepG2 [6] = test: relative viability EC50 (midpoint between 100% and the lowest measured viability); higher = less toxic
# Vero E6 [7] = test: as above
# U2OS [8] = test: cell viability relative to DMSO; higher = less toxic
# Calu-3 [9] = test: as above
# HepG2 [10] = test: as above
# Vero E6 [11] = test: as above
# Caco-2 [12] = test: as above
# U2OS [13] = test: relative viability EC50 (midpoint between 100% and the lowest measured viability); higher = less toxic
# Caco-2 [14] = test: as above
# Calu-3 [15] = test: as above
SMILES,drug sensitivity score (U2OS [1]),drug sensitivity score (Calu-3 [2]),drug sensitivity score (HepG2 [3]),drug sensitivity score (Vero E6 [4]),drug sensitivity score (Caco-2 [5]),relative viability EC50 (HepG2 [6]) [µM],relative viability EC50 (Vero E6 [7]) [µM],cell viability (U2OS [8]; 1 nM) [%],cell viability (U2OS [8]; 10 nM) [%],cell viability (U2OS [8]; 100 nM) [%],cell viability (U2OS [8]; 1000 nM) [%],cell viability (U2OS [8]; 10000 nM) [%],cell viability (Calu-3 [9]; 1 nM) [%],cell viability (Calu-3 [9]; 10 nM) [%],cell viability (Calu-3 [9]; 100 nM) [%],cell viability (Calu-3 [9]; 1000 nM) [%],cell viability (Calu-3 [9]; 10000 nM) [%],cell viability (HepG2 [10]; 1 nM) [%],cell viability (HepG2 [10]; 10 nM) [%],cell viability (HepG2 [10]; 100 nM) [%],cell viability (HepG2 [10]; 1000 nM) [%],cell viability (HepG2 [10]; 10000 nM) [%],cell viability (Vero E6 [11]; 1 nM) [%],cell viability (Vero E6 [11]; 10 nM) [%],cell viability (Vero E6 [11]; 100 nM) [%],cell viability (Vero E6 [11]; 1000 nM) [%],cell viability (Vero E6 [11]; 10000 nM) [%],cell viability (Caco-2 [12]; 1 nM) [%],cell viability (Caco-2 [12]; 10 nM) [%],cell viability (Caco-2 [12]; 100 nM) [%],cell viability (Caco-2 [12]; 1000 nM) [%],cell viability (Caco-2 [12]; 10000 nM) [%],relative viability EC50 (U2OS [13]) [µM],relative viability EC50 (Caco-2 [14]) [µM],relative viability EC50 (Calu-3 [15]) [µM]
CC(C)(C)C[C@@H]1N[C@@H](C(=O)N[C@H]2CC[C@H](O)CC2)[C@H](c2cccc(Cl)c2F)[C@]12C(=O)Nc1cc(Cl)ccc12,4.2,0.7,13.8,7.2,1.7,0.315,0.583,99.6,109,96.3,80.7,58.2,90.6,92.3,95.5,110,73.1,108,95.8,95.5,28.7,24.2,100,102,97.8,63.4,49.3,97.7,104,91,94.3,73.2,,,
CO[C@H]1CC[C@@H](C(=O)c2ccc3nc4c(cc3c2)CCCO4)CC1,0,,0,0,0,> 10,> 10,99.8,93.8,104,97.8,101,,,,,,99.5,107,104,102,104,102,103,93.1,99,100,90.8,90.3,104,99.2,92.7,> 10,> 10,
C[C@@H]1CN(Cc2ccc(F)cc2)CCN1C(=O)COc1ccc(Cl)cc1NC(N)=O,1.9,0.1,10.8,0,3.6,0.635,> 10,103,96.1,99.3,95,72.8,97.1,104,98.1,104,85,93.3,101,87.7,51.9,19.1,103,113,93.3,104,93,98.2,95.7,92.9,81.3,66.6,,,> 10
Cn1cc(C(F)(F)F)nc1-c1ccc(OCC(O)CNCCOc2ccc(O)c(C(N)=O)c2)cc1 (stereo not drawn),0,,0,0,0.2,> 10,> 10,98.7,100,94,101,98.1,,,,,,111,97,122,94.3,114,104,96.4,102,90.1,95.7,102,96.6,102,98.7,87.4,> 10,> 10,
O=C(NCC1(N2CCN(c3ccccc3)CC2)CCOCC1)c1cccnc1Sc1ccccc1,0,0,0,,0,> 10,,96.1,96.5,101,98.9,102,99.4,106,104,99.8,95,107,101,103,97.5,91.4,,,,,,99.8,97.4,103,98.1,94.1,> 10,> 10,> 10
CC(=O)N1CCN(c2ccc(OC[C@@H]3CO[C@@](Cn4ccnc4)(c4ccc(Cl)cc4Cl)O3)cc2)CC1 (racemic) [ketoconazole],0,0,0.3,,0.3,> 10,,98.3,101,99.3,103,95.3,97.1,90.6,96.3,96.3,96.9,112,96.1,111,102,83.3,,,,,,91.9,110,95.1,104,82.6,> 10,> 10,> 10
Nc1nccc2c1ncn2[C@@H]1O[C@H](CO)[C@@H](O)[C@@H]1O [3-deazaadenosine],0,,0,0,0,> 10,> 10,99.9,99.4,97.7,103,95.8,,,,,,97.9,103,95.6,97.3,96.1,87.4,100,90.8,92.8,95.1,89.8,101,97.9,89.2,97,> 10,> 10,
Cc1sc2c(c1C)C(c1ccc(Cl)cc1)=N[C@@H](CC(N)=O)c1nnc(C)n1-2 [CPI-203],9.3,4.7,13.2,18.6,4.7,0.186,0.172,93.9,94.4,86.1,57.9,43.6,98.3,105,100,78.3,60,91.8,94.3,81.3,40.2,35.2,96.4,93.9,73.7,15.4,11,100,95.8,88.9,76.3,70.5,0.302,,
Cc1noc2c1-c1ccccc1C(c1ccc(Cl)cc1)=N[C@H]2CC(N)=O [CPI-0610],5.1,3.2,5.9,13,1.2,1.02,0.449,105,108,97.3,84.1,47.6,103,99.7,105,90,64.7,109,111,101,75.2,49.4,111,108,88.4,38.5,16.2,104,108,106,94.5,80.6,1.42,> 10,
N=C(Nc1ccc(I)cc1)NC1C2CC3CC(C2)CC1C3 (stereo not drawn) [IPAG],0,0.7,7.1,2.7,6.6,1.81,,103,102,105,96.4,93.8,106,103,98.2,101,77.2,97.7,96,87.6,84.8,17,95.7,102,94.5,94.2,63.8,103,98.4,97.9,88.3,16.2,> 10,2.05,> 10
CSc1nc(N)cc(Oc2ccc(-c3nnc(Nc4cccc(C(F)(F)F)c4)[nH]3)cc2)n1 [KG-5],4.8,3,4.2,4.5,6,3.12,2.54,102,101,97.5,92.9,34.7,90.3,95.4,92.7,93.2,61.8,93.9,96,92.5,99.6,25.2,98.9,103,105,94.8,33.1,96.7,98.7,105,84.1,35.2,2.26,1.57,
CCCCCCCCCCCCCCCC(=O)OC[C@H](O)[C@H]1OC(=O)C(O)=C1O [L-ascorbyl-6-palmitate],0,0,0,,0,> 10,,100,103,97.5,102,97.9,98.9,104,94.5,108,113,101,93.2,92.6,94.4,97.7,,,,,,95.2,100,96.1,99.7,95,> 10,> 10,> 10
COc1cc2ncnc(Nc3ccc(Oc4ccccc4)cc3)c2cc1OC [SRC-kinase-inhibitor-I],0.4,5.4,0.1,2.6,2.1,> 10,,99.7,105,99.6,103,80.8,88.9,102,94,89.9,33.4,104,112,104,103,86.8,103,97.2,109,93.5,66.7,96.8,106,98,94.7,71.1,> 10,,1.98
N#Cc1c(-c2ccccc2)cc(-c2cc(Br)ccc2O)[nH]c1=O [TCS-PIM-1-1],0,,0,0,0.1,> 10,> 10,99,96.3,102,97.6,93.9,,,,,,94.9,99.4,99.7,94.5,99.2,96.9,101,95.5,96,93.1,96.7,101,104,97.5,88.8,> 10,> 10,
COc1cc(OC)c2c(=O)[nH]c(-c3cc(C)c(OCCO)c(C)c3)nc2c1 [apabetalone],0,0,0.9,2.9,0,> 10,,102,102,104,96.8,89.2,98.5,90.2,90.2,99.4,102,101,99.9,91.3,93.2,79.9,99.8,98.4,105,93,63.8,109,96.9,102,101,87.6,> 10,> 10,> 10

# From the supplement of paper PMC13380429
